Reference: paper PMC10301603, “Potent and Selective Benzothiazole-Based Antimitotics with Improved Water Solubility: Design, Synthesis, and Evaluation as Novel Anticancer Agents” (Pharmaceutics, 2023)

Key:
Assay type in all cases: cell-based, human
[1] = system: MCF7 cells; test: Cell cycle analysis (PI, flow cytometry); settings: 8 and 14 100 nM, 9 500 nM
Description: (§1) An amount of 8 × 10^4 cells/mL (HeLa, MCF7, or U87 MG cells) were seeded in 6-well plates (2 mL/well) and incubated in complete DMEM medium (see above) at 37 °C and 5% CO2 atmosphere for 24 h. Then, the medium was replaced with fresh complete DMEM in the presence or absence of the selected compounds (8, 9, and 14). The concentration of the compounds was selected according to their IC50 value for the antiproliferative activity in each cell line (see above, Section 2.4.4). HeLa cells were treated with 200 nM of compounds 8 and 14 and 500 nM of compound 9; MCF7 cells were treated with 100 nM of compounds 8 and 14 and 500 nM of compound 9; and U87 MG cells were treated with 50 nM of compound 8 and 100 nM of compounds 9 and 14. Untreated cells were used as negative controls. Cells were harvested 24, 48, or 72 h following treatment and fixed in ice-cold ethanol/PBS (7:3) overnight. Cells were then washed twice with PBS, suspended in PBS, and incubated overnight in darkness with 0.2 mg/mL RNase A (Sigma-Aldrich, St. Louis, MO, USA), 50 µg/mL propidium iodide (Sigma-Aldrich, St. Louis, MO, USA), and Triton 10× at room temperature. BD Accuri™ C6 Plus Flow Cytometer (BD Biosciences) was used to analyze samples, and BD Accuri™ C6 Software (version 1.0.264.21) was used for data analysis.

[2] = system: HeLa cells; test: Cell cycle analysis (PI, flow cytometry); settings: 8 and 14 200 nM, 9 500 nM
Description: as §1

[3] = system: U87MG cells; test: Cell cycle analysis (PI, flow cytometry); settings: for combined G2/M plus subG0/G1 populations: over the three time points (24, 48, 72 h)
Description: as §1, with “HeLa cells were treated with 200 nM of compounds 8 and 14 and 500 nM of compound 9; MCF7 cells were treated with 100 nM of compounds 8 and 14 and 500 nM of compound 9; and U87 MG cells were treated with 50 nM of compound 8 and 100 nM of compounds 9 and 14.” left out

[4] = system: HEK-293 cells; test: Cell growth inhibition assay (MTT), non-tumorigenic cells; settings: non-tumorigenic cell line
Method in brief: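 Cells in DMEM with 10% FBS attached for 24 h, then treated 72 h; MTT read-out. Single-point screen at 10 µM, IC50 from 10^−10 to 10^−2 M series in triplicate, three experiments; efflux sensitivity assessed with 10 µM verapamil.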

[5] = 24 h, 8 50 nM, 14 and 9 200 nM (Figure 6 legend; 100 nM in methods)

Compound: CCNC(=O)N(Cc1cccnc1)c1nc2ccc(OC)cc2s1 [Compound 8]
- G2/M population ([1]; MCF7, 24 h): 32%
- SubG0/G1 population ([1]; MCF7, 48 h): 9%
- SubG0/G1 population ([1]; MCF7, 72 h): 26%
- G2/M population ([2]; 24 h): 80%
- G2/M population ([2]; 48 h): 58%
- sub G0/G1 population ([2]; 48 h): 14–18%
- sub G0/G1 population ([2]; 72 h): 52%
- G2/M population [3, 5]: 39%
- SubG0/G1 population [3, 5]: 41%
- combined G2/M plus subG0/G1 populations [3]: ~85%
- IC50 ([4]; 72 h after drug exposure): 7.97 µM

Compound: COc1ccc2nc(N(C=O)Cc3cccnc3)sc2c1 [Compound 14, N-(6-methoxybenzo[d]thiazol-2-yl)-N-(pyridin-3-ylmethyl)formamide]
- G2/M population ([1]; MCF7, 24 h): 40%
- G2/M population ([1]; MCF7, 48 h): 30–35%
- SubG0/G1 population ([1]; MCF7, 48 h): 27%
- G2/M population ([1]; MCF7, 72 h): 30–35%
- SubG0/G1 population ([1]; MCF7, 72 h): 33%
- G2/M population ([2]; 24 h): 56%
- G2/M population ([2]; 48 h): 60%
- sub G0/G1 population ([2]; 48 h): 14–18%
- sub G0/G1 population ([2]; 72 h): 43%
- combined G2/M plus subG0/G1 populations [3]: roughly 75%
- IC50 ([4]; Homo sapiens, HEK293, 72 h after drug exposure): 8.22 µM
